# Reference: patent publication US9586931B2 (Merck Sharp & Dohme Corp., priority 2012, dated 2017)
# Molecular target: T1, recombinant human GST-Syk (Homo sapiens, UniProt P43405)
# T1 construct: purchased Carna Biosciences 08-176
# Experiment: Homogeneous Time-Resolved Fluorescence (HTRF) assay for the recombinant human Syk enzyme
# Assay type: biochemical
# Conditions: recombinant human GST-Syk 5 pM, ATP 25 μM, 10-dose titration 10 μM to 0.508 nM; read-out: rhSYK Activity IC50
# Procedure, shortened: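 Detection used time-resolved fluorescence 30 min after adding a quench mix (40 mM EDTA, 15 mM Tris pH 7.5, 0.01% Tween 20) containing 2 nM Europium anti-pTyr antibody and 70 nM streptavidin-APC. This followed 45 min of room-temperature peptide phosphorylation by recombinant GST-tagged human Syk.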
row,IC50 [nM],SMILES
1,1460,"Cc1cc(Nc2cc(C(F)(F)F)ccn2)nc(-c2cn(C(C)C(=O)NCCc3cccc(Oc4ccccc4)c3)nn2)c1 (stereo not drawn) [Example 1.36, 2-[4-(4-methyl-6-{[4-(trifluoromethyl)pyridin-2-yl]amino}pyridin-2-yl)-1H-1,2,3-triazol-1-yl]-N-[2-(3-phenoxyphenyl)ethyl]propanamide]"
2,33.9,"Cc1cc(Nc2cc(C(F)(F)F)ccn2)nc(-c2cn(C(C)C(=O)NCc3cc(-c4ccco4)on3)nn2)c1 (stereo not drawn) [Example 1.37, N-[(5-furan-2-ylisoxazol-3-yl)methyl]-2-[4-(4-methyl-6-{[4-(trifluoromethyl)pyridin-2-yl]amino}pyridin-2-yl)-1H-1,2,3-triazol-1-yl]propanamide]"
3,635,"COc1ccc(OC)c(C(O)C(C)NC(=O)C(C)n2cc(-c3cc(C)cc(Nc4cc(C(F)(F)F)ccn4)n3)nn2)c1 (stereo not drawn) [Example 1.38, N-[2-(2,5-dimethoxyphenyl)-2-hydroxy-1-methylethyl]-2-[4-(4-methyl-6-{[4-(trifluoromethyl)pyridin-2-yl]amino}pyridin-2-yl)-1H-1,2,3-triazol-1-yl]propanamide]"
4,367,"Cc1cc(Nc2cc(C(F)(F)F)ccn2)nc(-c2cn(C(C)C(=O)N3CCc4onc(-c5ccc(F)cc5)c4C3)nn2)c1 (stereo not drawn) [Example 1.39, 6-(1-{2-[3-(4-fluorophenyl)-6,7-dihydroisoxazolo[4,5-c]pyridin-5(4H)-yl]-1-methyl-2-oxoethyl}-1H-1,2,3-triazol-4-yl)-4-methyl-N-[4-(trifluoromethyl)pyridin-2-yl]pyridin-2-amine]"
5,118,"Cc1cc(Nc2cc(C(F)(F)F)ccn2)nc(-c2cn(C(C)C(=O)N[C@H]3C[C@@H]3c3ccccc3)nn2)c1 (stereo partly drawn) [Example 1.40, 2-[4-(4-methyl-6-{[4-(trifluoromethyl)pyridin-2-yl]amino}pyridin-2-yl)-1H-1,2,3-triazol-1-yl]-N-[(1S,2R)-2-phenylcyclopropyl]propanamide]"
6,131,"Cc1cc(Nc2cc(C(F)(F)F)ccn2)nc(-c2cn(C(C)C(=O)N3CCc4[nH]c5c(Cl)cccc5c4C3)nn2)c1 (stereo not drawn) [Example 1.41, 6-{1-[2-(6-chloro-1,3,4,5-tetrahydro-2H-pyrido[4,3-b]indol-2-yl)-1-methyl-2-oxoethyl]-1H-1,2,3-triazol-4-yl}-4-methyl-N-[4-(trifluoromethyl)pyridin-2-yl]pyridin-2-amine]"
7,912,"Cc1cc(Nc2cc(C(F)(F)F)ccn2)nc(-c2cn(C(C)C(=O)NCCc3ccccc3Oc3ccccc3)nn2)c1 (stereo not drawn) [Example 1.42, 2-[4-(4-methyl-6-{[4-(trifluoromethyl)pyridin-2-yl]amino}pyridin-2-yl)-1H-1,2,3-triazol-1-yl]-N-[2-(2-phenoxyphenyl)ethyl]propanamide]"
8,64.2,"Cc1cc(Nc2cc(C(F)(F)F)ccn2)nc(-c2cn(C(C)C(=O)NCc3cc4ccc(F)cc4[nH]c3=O)nn2)c1 (stereo not drawn) [Example 1.43, N-[(7-fluoro-2-oxo-1,2-dihydroquinolin-3-yl)methyl]-2-[4-(4-methyl-6-{[4-(trifluoromethyl)pyridin-2-yl]amino}pyridin-2-yl)-1H-1,2,3-triazol-1-yl]propanamide]"
9,626,"Cc1cc(Nc2cc(C(F)(F)F)ccn2)nc(-c2cn(C(C)C(=O)NCCc3cccc4ccccc34)nn2)c1 (stereo not drawn) [Example 1.44, 2-[4-(4-methyl-6-{[4-(trifluoromethyl)pyridin-2-yl]amino}pyridin-2-yl)-1H-1,2,3-triazol-1-yl]-N-(2-naphthalen-1-ylethyl)propanamide]"
10,172,"COc1ccc(C2CN(C(=O)C(C)n3cc(-c4cc(C)cc(Nc5cc(C(F)(F)F)ccn5)n4)nn3)CCS2)cc1 (stereo not drawn) [Example 1.45, 6-(1-{2-[2-(4-methoxyphenyl)thiomorpholin-4-yl]-1-methyl-2-oxoethyl}-1H-1,2,3-triazol-4-yl)-4-methyl-N-[4-(trifluoromethyl)pyridin-2-yl]pyridin-2-amine]"
11,1400,"Cc1cc(Nc2cc(C(F)(F)F)ccn2)nc(-c2cn(C(C)C(=O)NCCc3ccc(Oc4ccccc4)cc3)nn2)c1 (stereo not drawn) [Example 1.46, 2-[4-(4-methyl-6-{[4-(trifluoromethyl)pyridin-2-yl]amino}pyridin-2-yl)-1H-1,2,3-triazol-1-yl]-N-[2-(4-phenoxyphenyl)ethyl]propanamide]"
12,345,"Cc1cc(Nc2cc(C(F)(F)F)ccn2)nc(-c2cn(C(C)C(=O)NCc3c(-c4ccccc4)noc3C)nn2)c1 (stereo not drawn) [Example 1.47, N-[(5-methyl-3-phenylisoxazol-4-yl)methyl]-2-[4-(4-methyl-6-{[4-(trifluoromethyl)pyridin-2-yl]amino}pyridin-2-yl)-1H-1,2,3-triazol-1-yl]propanamide]"
13,404,"Cc1cc(Nc2cc(C(F)(F)F)ccn2)nc(-c2cn(C(C)C(=O)NCC3(c4ccc(F)cc4)CCOCC3)nn2)c1 (stereo not drawn) [Example 1.49, N-{[4-(4-fluorophenyl)tetrahydro-2H-pyran-4-yl]methyl}-2-[4-(4-methyl-6-{[4-(trifluoromethyl)pyridin-2-yl]amino}pyridin-2-yl)-1H-1,2,3-triazol-1-yl]propanamide]"
14,570,"Cc1cc(Nc2cc(C(F)(F)F)ccn2)nc(-c2cn(C(C)C(=O)N3CCN(Cc4ccccc4)C(c4ccccc4)C3)nn2)c1 (stereo not drawn) [Example 1.50, 6-{1-[2-(4-benzyl-3-phenylpiperazin-1-yl)-1-methyl-2-oxoethyl]-1H-1,2,3-triazol-4-yl}-4-methyl-N-[4-(trifluoromethyl)pyridin-2-yl]pyridin-2-amine]"

# Further lines, the compound ahead of its results:
row,SMILES,IC50 [nM]
1,"Cc1cc(Nc2cc(C(F)(F)F)ccn2)nc(-c2cn([C@@H](C)C(N)=O)nn2)c1 [Example 1.24, (2S)-2-[4-(4-methyl-6-{[4-(trifluoromethyl)pyridin-2-yl]amino}pyridin-2-yl)-1H-1,2,3-triazol-1-yl]propanamide]",14.2
2,"Cc1cc(Nc2cc(C(F)(F)F)ccn2)nc(-c2cn(C(C)C(N)=O)nn2)c1 (stereo not drawn) [Example 1.25, 2-[4-(4-methyl-6-{[4-(trifluoromethyl)pyridin-2-yl]amino}pyridin-2-yl)-1H-1,2,3-triazol-1-yl]propanamide]",8.8
3,"Cc1cc(Nc2cc(C(F)(F)F)ccn2)nc(-c2cn(C/C=C/C(N)=O)nn2)c1 [Example 1.26, (2E)-4-[4-(4-methyl-6-{[4-(trifluoromethyl)pyridin-2-yl]amino}pyridin-2-yl)-1H-1,2,3-triazol-1-yl]but-2-enamide]",1110
4,"Cc1cc(Nc2cc(C(F)(F)F)ccn2)nc(-c2cn(C(C)C(=O)N[C@@H](CO)Cc3ccccc3)nn2)c1 (stereo partly drawn) [Example 1.27, N-[(1R)-1-benzyl-2-hydroxyethyl]-2-[4-(4-methyl-6-{[4-(trifluoromethyl)pyridin-2-yl]amino}pyridin-2-yl)-1H-1,2,3-triazol-1-yl]propanamide]",102
5,"Cc1cc(Nc2cc(C(F)(F)F)ccn2)nc(-c2cn(C(C)C(=O)N3CCc4ccccc4C3)nn2)c1 (stereo not drawn) [Example 1.28, 6-{1-[2-(3,4-dihydroisoquinolin-2(1H)-yl)-1-methyl-2-oxoethyl]-1H-1,2,3-triazol-4-yl}-4-methyl-N-[4-(trifluoromethyl)pyridin-2-yl]pyridin-2-amine]",645
6,Cc1cc(Nc2cc(C(F)(F)F)ccn2)nc(-c2cn(C(C)C(=O)NCCc3c[nH]c4ccccc34)nn2)c1 (stereo not drawn) [Example 1.29],124
7,"Cc1cc(Nc2cc(C(F)(F)F)ccn2)nc(-c2cn(C(C)C(=O)NCCc3c[nH]c4ccc(OCc5ccccc5)cc34)nn2)c1 (stereo not drawn) [Example 1.30, N-{2-[5-(benzyloxy)-1H-indol-3-yl]ethyl}-2-[4-(4-methyl-6-{[4-(trifluoromethyl)pyridin-2-yl]amino}pyridin-2-yl)-1H-1,2,3-triazol-1-yl]propanamide]",1620
8,"Cc1cc(Nc2cc(C(F)(F)F)ccn2)nc(-c2cn(C(C)C(=O)N3CCc4c([nH]c5ccccc45)C3)nn2)c1 (stereo not drawn) [Example 1.31, 4-methyl-6-{1-[1-methyl-2-oxo-2-(1,3,4,9-tetrahydro-2H-beta-carbolin-2-yl)ethyl]-1H-1,2,3-triazol-4-yl}-N-[4-(trifluoromethyl)pyridin-2-yl]pyridin-2-amine]",320
9,"Cc1cc(Nc2cc(C(F)(F)F)ccn2)nc(-c2cn(C(C)C(=O)NCCc3ccc4ccccc4c3)nn2)c1 (stereo not drawn) [Example 1.32, 2-[4-(4-methyl-6-{[4-(trifluoromethyl)pyridin-2-yl]amino}pyridin-2-yl)-1H-1,2,3-triazol-1-yl]-N-(2-naphthalen-2-ylethyl)propanamide]",357
10,"Cc1cc(Nc2cc(C(F)(F)F)ccn2)nc(-c2cn(C(C)C(=O)NCc3cccc4nsnc34)nn2)c1 (stereo not drawn) [Example 1.33, N-(2,1,3-benzothiadiazol-4-ylmethyl)-2-[4-(4-methyl-6-{[4-(trifluoromethyl)pyridin-2-yl]amino}pyridin-2-yl)-1H-1,2,3-triazol-1-yl]propanamide]",325
11,"COc1cc2c(cc1OC)CN(C(=O)C(C)n1cc(-c3cc(C)cc(Nc4cc(C(F)(F)F)ccn4)n3)nn1)C(C)C2 (stereo not drawn) [Example 1.34, 6-{1-[2-(6,7-dimethoxy-3-methyl-3,4-dihydroisoquinolin-2(1H)-yl)-1-methyl-2-oxoethyl]-1H-1,2,3-triazol-4-yl}-4-methyl-N-[4-(trifluoromethyl)pyridin-2-yl]pyridin-2-amine]",2700
12,"Cc1cc(Nc2cc(C(F)(F)F)ccn2)nc(-c2cn(C(C)C(=O)NC(C)c3cnn(-c4ccccc4F)c3)nn2)c1 (stereo not drawn) [Example 1.35, N-{1-[1-(2-fluorophenyl)-1H-pyrazol-4-yl]ethyl}-2-[4-(4-methyl-6-{[4-(trifluoromethyl)pyridin-2-yl]amino}pyridin-2-yl)-1H-1,2,3-triazol-1-yl]propanamide]",171
13,"COc1ccc2[nH]c3c(c2c1)CCN(C(=O)C(C)n1cc(-c2cc(C)cc(Nc4cc(C(F)(F)F)ccn4)n2)nn1)C3 (stereo not drawn) [Example 1.48, 6-{1-[2-(6-methoxy-1,3,4,9-tetrahydro-2H-beta-carbolin-2-yl)-1-methyl-2-oxoethyl]-1H-1,2,3-triazol-4-yl}-4-methyl-N-1.[4-(trifluoromethyl)pyridin-2-yl]pyridin-2-amine]",257
